ChEMBL document CHEMBL3797052 (Eur J Med Chem, 2016)

Test system: not listed separately
Experiment: Antiproliferative activity against human SW620 cells assessed as growth inhibition after 48 hrs by sulforhodamine B assay
Assay type: functional
Settings: SW-620, 48 h
With CNC(=O)c1cc(Oc2ccc3nc(NC(=O)Nc4ccc(Cl)c(C(F)(F)F)c4)sc3c2)ccn1 the GI50 was 2.99 µM and the TGI was over 100 µM.

Same assay, conditions: SW-620, 48 h, read-out: LC50 (the source's name)
For CNC(=O)c1cc(Oc2ccc3nc(NC(=O)Nc4ccc(Cl)c(C(F)(F)F)c4)sc3c2)ccn1, the CC50 was over 100 µM.

Test system: not listed separately
Experiment: Antiproliferative activity against human SF268 cells assessed as cell growth at 10^-6 M after 48 hrs by sulforhodamine B assay
Assay type: functional
Settings: SF-268, 48 h, read-out: Activity
With CNC(=O)c1cc(Oc2ccc3nc(NC(=O)Nc4ccc(Cl)c(C(F)(F)F)c4)sc3c2)ccn1 the growth at 1 µM was 78%.

Test system: KM12
Experiment: Antiproliferative activity against human KM12 cells assessed as cell growth at 10^-4 M after 48 hrs by sulforhodamine B assay
Assay type: functional
Settings: KM12, 48 h, read-out: Activity
CNC(=O)c1cc(Oc2ccc3nc(NC(=O)Nc4ccc(Cl)c(C(F)(F)F)c4)sc3c2)ccn1 showed a growth at 100 µM of 45%.

Test system: not listed separately
Experiment: Antiproliferative activity against human RPMI8226 cells assessed as cell growth at 10^-8 M after 48 hrs by sulforhodamine B assay
Assay type: functional
Settings: RPMI-8226, 48 h, read-out: Activity
Work on CNC(=O)c1cc(Oc2ccc3nc(NC(=O)Nc4ccc(Cl)c(C(F)(F)F)c4)sc3c2)ccn1 yielded a growth at 0.01 µM of 100%.

Test system: MCF7
Experiment: Antiproliferative activity against human MCF7 cells assessed as growth inhibition after 48 hrs by sulforhodamine B assay
Assay type: functional
Settings: MCF7, 48 h
Work on CNC(=O)c1cc(Oc2ccc3nc(NC(=O)Nc4ccc(Cl)c(C(F)(F)F)c4)sc3c2)ccn1 yielded a GI50 of 1.72 µM.

Same assay, conditions: MCF7, 48 h, read-out: LC50 (the source's name)
For CNC(=O)c1cc(Oc2ccc3nc(NC(=O)Nc4ccc(Cl)c(C(F)(F)F)c4)sc3c2)ccn1, the CC50 was over 100 µM.

Test system: U-251
Experiment: Antiproliferative activity against human U251 cells assessed as cell growth at 10^-7 M after 48 hrs by sulforhodamine B assay
Assay type: functional
Settings: U-251, 48 h, read-out: Activity
For CNC(=O)c1cc(Oc2ccc3nc(NC(=O)Nc4ccc(Cl)c(C(F)(F)F)c4)sc3c2)ccn1, the growth at 0.1 µM was 101%.

Test system: NCI-H226
Experiment: Antiproliferative activity against human NCI-H226 cells assessed as growth inhibition after 48 hrs by sulforhodamine B assay
Assay type: functional
Settings: NCI-H226, 48 h
CNC(=O)c1cc(Oc2ccc3nc(NC(=O)Nc4ccc(Cl)c(C(F)(F)F)c4)sc3c2)ccn1 showed a GI50 of 2.69 µM and a TGI of 7.47 µM.

Same assay, conditions: NCI-H226, 48 h, read-out: LC50 (the source's name)
In the case of CNC(=O)c1cc(Oc2ccc3nc(NC(=O)Nc4ccc(Cl)c(C(F)(F)F)c4)sc3c2)ccn1, the CC50 is reported as over 100 µM.

Test system: not listed separately
Experiment: Antiproliferative activity against human UACC257 cells assessed as cell growth at 10^-7 M after 48 hrs by sulforhodamine B assay
Assay type: functional
Settings: UACC-257, 48 h, read-out: Activity
Compound CNC(=O)c1cc(Oc2ccc3nc(NC(=O)Nc4ccc(Cl)c(C(F)(F)F)c4)sc3c2)ccn1 has a growth at 0.1 µM of 98%.

Test system: not listed separately
Experiment: Antiproliferative activity against human DU145 cells assessed as growth inhibition after 48 hrs by sulforhodamine B assay
Assay type: functional
Settings: DU-145, 48 h
For CNC(=O)c1cc(Oc2ccc3nc(NC(=O)Nc4ccc(Cl)c(C(F)(F)F)c4)sc3c2)ccn1, the GI50 was 2.24 µM.

Same assay, conditions: DU-145, 48 h, read-out: LC50 (the source's name)
In the case of CNC(=O)c1cc(Oc2ccc3nc(NC(=O)Nc4ccc(Cl)c(C(F)(F)F)c4)sc3c2)ccn1, the CC50 is reported as over 100 µM.

Test system: not listed separately
Experiment: Antiproliferative activity against human DU145 cells assessed as cell growth at 10^-7 M after 48 hrs by sulforhodamine B assay
Assay type: functional
Settings: DU-145, 48 h, read-out: Activity
Compound CNC(=O)c1cc(Oc2ccc3nc(NC(=O)Nc4ccc(Cl)c(C(F)(F)F)c4)sc3c2)ccn1 has a growth at 0.1 µM of 109%.

Test system: EKVX
Experiment: Antiproliferative activity against human EKVX cells assessed as cell growth at 10^-7 M after 48 hrs by sulforhodamine B assay
Assay type: functional
Settings: read-out: Activity
Compound CNC(=O)c1cc(Oc2ccc3nc(NC(=O)Nc4ccc(Cl)c(C(F)(F)F)c4)sc3c2)ccn1 has a growth at 0.1 µM of 94%.

Test system: not listed separately
Experiment: Antiproliferative activity against human OVCAR8 cells assessed as cell growth at 10^-8 M after 48 hrs by sulforhodamine B assay
Assay type: functional
Settings: OVCAR-8, 48 h, read-out: Activity
For CNC(=O)c1cc(Oc2ccc3nc(NC(=O)Nc4ccc(Cl)c(C(F)(F)F)c4)sc3c2)ccn1, the growth at 0.01 µM was 105%.

Test system: T47D
Experiment: Antiproliferative activity against human T47D cells assessed as cell growth at 10^-4 M after 48 hrs by sulforhodamine B assay
Assay type: functional
Settings: read-out: Activity
For CNC(=O)c1cc(Oc2ccc3nc(NC(=O)Nc4ccc(Cl)c(C(F)(F)F)c4)sc3c2)ccn1, the growth at 100 µM was -16%.

Test system: not listed separately
Experiment: Antiproliferative activity against human HCT15 cells assessed as cell growth at 10^-4 M after 48 hrs by sulforhodamine B assay
Assay type: functional
Settings: HCT-15, 48 h, read-out: Activity
Compound CNC(=O)c1cc(Oc2ccc3nc(NC(=O)Nc4ccc(Cl)c(C(F)(F)F)c4)sc3c2)ccn1 has a growth at 100 µM of 23%.

Test system: M14
Experiment: Antiproliferative activity against human M14 cells assessed as cell growth at 10^-7 M after 48 hrs by sulforhodamine B assay
Assay type: functional
Settings: M14, 48 h, read-out: Activity
For CNC(=O)c1cc(Oc2ccc3nc(NC(=O)Nc4ccc(Cl)c(C(F)(F)F)c4)sc3c2)ccn1, the growth at 0.1 µM was 92%.

Test system: CCRF-CEM
Experiment: Antiproliferative activity against human CCRF-CEM cells assessed as cell growth at 10^-4 M after 48 hrs by sulforhodamine B assay
Assay type: functional
Settings: read-out: Activity
CNC(=O)c1cc(Oc2ccc3nc(NC(=O)Nc4ccc(Cl)c(C(F)(F)F)c4)sc3c2)ccn1 showed a growth at 100 µM of 53%.

Test system: not listed separately
Experiment: Antiproliferative activity against human UACC257 cells assessed as cell growth at 10^-6 M after 48 hrs by sulforhodamine B assay
Assay type: functional
Settings: UACC-257, 48 h, read-out: Activity
CNC(=O)c1cc(Oc2ccc3nc(NC(=O)Nc4ccc(Cl)c(C(F)(F)F)c4)sc3c2)ccn1 showed a growth at 1 µM of 90%.

Test system: MCF7
Experiment: Antiproliferative activity against human MCF7 cells assessed as cell growth at 10^-7 M after 48 hrs by sulforhodamine B assay
Assay type: functional
Settings: MCF7, 48 h, read-out: Activity
Work on CNC(=O)c1cc(Oc2ccc3nc(NC(=O)Nc4ccc(Cl)c(C(F)(F)F)c4)sc3c2)ccn1 yielded a growth at 0.1 µM of 89%.

Biological target: CYP2C19 (Homo sapiens, UniProt P33261)
Sequence (P33261 whole entry): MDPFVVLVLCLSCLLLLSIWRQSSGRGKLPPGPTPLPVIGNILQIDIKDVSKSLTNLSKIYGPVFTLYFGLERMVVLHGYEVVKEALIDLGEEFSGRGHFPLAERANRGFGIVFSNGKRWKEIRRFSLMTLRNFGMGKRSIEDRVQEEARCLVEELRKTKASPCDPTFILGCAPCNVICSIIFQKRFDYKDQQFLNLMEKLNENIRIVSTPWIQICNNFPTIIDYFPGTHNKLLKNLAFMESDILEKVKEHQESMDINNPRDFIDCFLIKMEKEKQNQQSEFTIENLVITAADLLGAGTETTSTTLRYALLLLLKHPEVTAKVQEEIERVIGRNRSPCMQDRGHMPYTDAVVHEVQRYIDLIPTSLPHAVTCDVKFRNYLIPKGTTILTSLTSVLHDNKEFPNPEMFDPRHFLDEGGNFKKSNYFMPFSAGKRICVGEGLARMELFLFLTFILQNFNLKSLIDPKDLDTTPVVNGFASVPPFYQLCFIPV
Experiment: Inhibition of recombinant human CYP2C19 assessed as remaining enzyme activity at 10 uM after 5 mins in presence of NADP by fluorescence plate reader analysis
Assay type: ADME
Settings: read-out: Activity
Compound CNC(=O)c1cc(Oc2ccc3nc(NC(=O)Nc4ccc(Cl)c(C(F)(F)F)c4)sc3c2)ccn1 has an activity at 5 min, 10 µM of 79.9%.

Biological target: CYP3A4 (Homo sapiens, UniProt P08684)
Sequence (P08684 whole entry): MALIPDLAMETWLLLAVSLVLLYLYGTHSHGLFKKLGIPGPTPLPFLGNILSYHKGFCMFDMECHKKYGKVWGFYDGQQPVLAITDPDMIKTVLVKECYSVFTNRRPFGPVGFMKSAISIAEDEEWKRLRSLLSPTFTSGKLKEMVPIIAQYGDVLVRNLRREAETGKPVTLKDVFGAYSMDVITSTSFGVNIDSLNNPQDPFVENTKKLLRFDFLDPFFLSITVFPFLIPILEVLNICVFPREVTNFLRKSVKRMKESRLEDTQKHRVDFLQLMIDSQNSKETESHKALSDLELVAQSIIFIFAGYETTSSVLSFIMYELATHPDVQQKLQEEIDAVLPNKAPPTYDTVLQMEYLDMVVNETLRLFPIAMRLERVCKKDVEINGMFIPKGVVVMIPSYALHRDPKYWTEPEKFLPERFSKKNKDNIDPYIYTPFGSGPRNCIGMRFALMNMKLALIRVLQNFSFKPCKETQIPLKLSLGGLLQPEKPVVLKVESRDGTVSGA
Experiment: Inhibition of recombinant human CYP3A4 assessed as remaining enzyme activity using CYP3A4 blue as substrate at 10 uM after 5 mins in presence of NADP by fluorescence plate reader analysis
Assay type: ADME
Settings: recombinant human CYP3A4, probe CYP3A4 blue, read-out: Activity
For CNC(=O)c1cc(Oc2ccc3nc(NC(=O)Nc4ccc(Cl)c(C(F)(F)F)c4)sc3c2)ccn1, the activity at 5 min, 10 µM was 105%.

Test system: not listed separately
Experiment: Antiproliferative activity against human SNB75 cells assessed as cell growth at 10^-8 M after 48 hrs by sulforhodamine B assay
Assay type: functional
Settings: SNB-75, 48 h, read-out: Activity
CNC(=O)c1cc(Oc2ccc3nc(NC(=O)Nc4ccc(Cl)c(C(F)(F)F)c4)sc3c2)ccn1 showed a growth at 0.01 µM of 79%.

Test system: not listed separately
Experiment: Antiproliferative activity against human NCI-ADR-RES cells assessed as cell growth at 10^-7 M after 48 hrs by sulforhodamine B assay
Assay type: functional
Settings: read-out: Activity
CNC(=O)c1cc(Oc2ccc3nc(NC(=O)Nc4ccc(Cl)c(C(F)(F)F)c4)sc3c2)ccn1 gave a growth at 0.1 µM of 113%.

Test system: 786-0
Experiment: Antiproliferative activity against human 786-0 cells assessed as cell growth at 10^-6 M after 48 hrs by sulforhodamine B assay
Assay type: functional
Settings: 786-0, 48 h, read-out: Activity
In the case of CNC(=O)c1cc(Oc2ccc3nc(NC(=O)Nc4ccc(Cl)c(C(F)(F)F)c4)sc3c2)ccn1, the growth at 1 µM is reported as 95%.

Test system: not listed separately
Experiment: Antiproliferative activity against human UO31 cells assessed as cell growth at 10^-8 M after 48 hrs by sulforhodamine B assay
Assay type: functional
Settings: UO-31, 48 h, read-out: Activity
With CNC(=O)c1cc(Oc2ccc3nc(NC(=O)Nc4ccc(Cl)c(C(F)(F)F)c4)sc3c2)ccn1 the growth at 0.01 µM was 100%.

Test system: not listed separately
Experiment: Antiproliferative activity against human OVCAR5 cells assessed as cell growth at 10^-4 M after 48 hrs by sulforhodamine B assay
Assay type: functional
Settings: OVCAR-5, 48 h, read-out: Activity
With CNC(=O)c1cc(Oc2ccc3nc(NC(=O)Nc4ccc(Cl)c(C(F)(F)F)c4)sc3c2)ccn1 the growth at 100 µM was -24%.

Test system: MDA-MB-435
Experiment: Antiproliferative activity against human MDA-MB-435 cells assessed as cell growth at 10^-7 M after 48 hrs by sulforhodamine B assay
Assay type: functional
Settings: MDA-MB-435, 48 h, read-out: Activity
CNC(=O)c1cc(Oc2ccc3nc(NC(=O)Nc4ccc(Cl)c(C(F)(F)F)c4)sc3c2)ccn1 showed a growth at 0.1 µM of 92%.

Test system: not listed separately
Experiment: Antiproliferative activity against human COLO205 cells assessed as cell growth at 10^-6 M after 48 hrs by sulforhodamine B assay
Assay type: functional
Settings: COLO 205, 48 h, read-out: Activity
With CNC(=O)c1cc(Oc2ccc3nc(NC(=O)Nc4ccc(Cl)c(C(F)(F)F)c4)sc3c2)ccn1 the growth at 1 µM was 86%.

Test system: not listed separately
Experiment: Antiproliferative activity against human MOLT4 cells assessed as cell growth at 10^-4 M after 48 hrs by sulforhodamine B assay
Assay type: functional
Settings: MOLT-4, 48 h, read-out: Activity
Compound CNC(=O)c1cc(Oc2ccc3nc(NC(=O)Nc4ccc(Cl)c(C(F)(F)F)c4)sc3c2)ccn1 has a growth at 100 µM of 55%.

Test system: not listed separately
Experiment: Antiproliferative activity against human DU145 cells assessed as cell growth at 10^-8 M after 48 hrs by sulforhodamine B assay
Assay type: functional
Settings: DU-145, 48 h, read-out: Activity
Compound CNC(=O)c1cc(Oc2ccc3nc(NC(=O)Nc4ccc(Cl)c(C(F)(F)F)c4)sc3c2)ccn1 has a growth at 0.01 µM of 109%.

Test system: not listed separately
Experiment: Antiproliferative activity against human NCI-ADR-RES cells assessed as cell growth at 10^-6 M after 48 hrs by sulforhodamine B assay
Assay type: functional
Settings: read-out: Activity
For CNC(=O)c1cc(Oc2ccc3nc(NC(=O)Nc4ccc(Cl)c(C(F)(F)F)c4)sc3c2)ccn1, the growth at 1 µM was 94%.

Test system: not listed separately
Experiment: Antiproliferative activity against human SNB75 cells assessed as growth inhibition after 48 hrs by sulforhodamine B assay
Assay type: functional
Settings: SNB-75, 48 h
Compound CNC(=O)c1cc(Oc2ccc3nc(NC(=O)Nc4ccc(Cl)c(C(F)(F)F)c4)sc3c2)ccn1 has a GI50 of 1.52 µM and a TGI of 3.24 µM.

Same assay, conditions: SNB-75, 48 h, read-out: LC50 (the source's name)
Work on CNC(=O)c1cc(Oc2ccc3nc(NC(=O)Nc4ccc(Cl)c(C(F)(F)F)c4)sc3c2)ccn1 yielded a CC50 of 6.88 µM.

Test system: not listed separately
Experiment: Antiproliferative activity against human UACC257 cells assessed as cell growth at 10^-4 M after 48 hrs by sulforhodamine B assay
Assay type: functional
Settings: UACC-257, 48 h, read-out: Activity
Work on CNC(=O)c1cc(Oc2ccc3nc(NC(=O)Nc4ccc(Cl)c(C(F)(F)F)c4)sc3c2)ccn1 yielded a growth at 100 µM of 30%.

Test system: MDA-MB-435
Experiment: Antiproliferative activity against human MDA-MB-435 cells assessed as cell growth at 10^-6 M after 48 hrs by sulforhodamine B assay
Assay type: functional
Settings: MDA-MB-435, 48 h, read-out: Activity
For CNC(=O)c1cc(Oc2ccc3nc(NC(=O)Nc4ccc(Cl)c(C(F)(F)F)c4)sc3c2)ccn1, the growth at 1 µM was 83%.

Test system: not listed separately
Experiment: Antiproliferative activity against human LOXIMVI cells assessed as cell growth at 10^-6 M after 48 hrs by sulforhodamine B assay
Assay type: functional
Settings: LOX IMVI, read-out: Activity
In the case of CNC(=O)c1cc(Oc2ccc3nc(NC(=O)Nc4ccc(Cl)c(C(F)(F)F)c4)sc3c2)ccn1, the growth at 1 µM is reported as 87%.

Biological target: RAF proto-oncogene serine/threonine-protein kinase (Homo sapiens, UniProt P04049)
Sequence (P04049 whole entry): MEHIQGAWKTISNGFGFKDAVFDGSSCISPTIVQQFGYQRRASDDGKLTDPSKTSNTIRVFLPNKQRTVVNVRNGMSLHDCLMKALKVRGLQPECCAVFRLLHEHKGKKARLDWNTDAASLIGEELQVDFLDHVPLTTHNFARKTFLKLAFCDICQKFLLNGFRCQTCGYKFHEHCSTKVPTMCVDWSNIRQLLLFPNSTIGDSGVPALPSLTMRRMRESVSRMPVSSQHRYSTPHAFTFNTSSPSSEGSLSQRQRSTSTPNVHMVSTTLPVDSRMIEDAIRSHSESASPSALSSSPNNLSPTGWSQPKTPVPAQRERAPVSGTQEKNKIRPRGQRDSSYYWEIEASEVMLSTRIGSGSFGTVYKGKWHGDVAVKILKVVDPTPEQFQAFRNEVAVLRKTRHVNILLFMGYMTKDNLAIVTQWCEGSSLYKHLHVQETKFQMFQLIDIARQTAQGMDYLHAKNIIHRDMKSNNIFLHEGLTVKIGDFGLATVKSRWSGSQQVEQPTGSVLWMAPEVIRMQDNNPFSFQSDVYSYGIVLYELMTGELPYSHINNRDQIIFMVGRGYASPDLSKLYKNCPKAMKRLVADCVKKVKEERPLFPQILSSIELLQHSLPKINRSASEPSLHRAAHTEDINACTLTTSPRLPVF
Experiment: Inhibition of human C-RAF measured after 40 mins by scintillation counting
Settings: not given
With CNC(=O)c1cc(Oc2ccc3nc(NC(=O)Nc4ccc(Cl)c(C(F)(F)F)c4)sc3c2)ccn1 the IC50 was 0.111 µM.

Test system: SR
Experiment: Antiproliferative activity against human SR cells assessed as growth inhibition after 48 hrs by sulforhodamine B assay
Assay type: functional
Settings: not given
With CNC(=O)c1cc(Oc2ccc3nc(NC(=O)Nc4ccc(Cl)c(C(F)(F)F)c4)sc3c2)ccn1 the GI50 was 0.412 µM, the LC50 was over 100 µM and the TGI was 9.1 µM.
